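A five-concentration, 48-hour dose response in 96-well plates underlies each endpoint, interpolated linearly between surrounding concentrations. GI50 marks 50% less growth. TGI is the concentration that stops growth completely.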
What was measured:
Test in all cases: NCI-60 cell line screen, 48 h
A498 renal = system: A498 renal
A549 NSCLC = system: A549 NSCLC
ACHN renal = system: ACHN renal
DU-145 prostate = system: DU-145 prostate
HCT-15 colon = system: HCT-15 colon
HS 578T breast = system: HS 578T breast
KM12 colon = system: KM12 colon
MDA-MB-231 breast = system: MDA-MB-231 breast
NCI-H226 lung = system: NCI-H226 lung
SF-539 CNS = system: SF-539 CNS

Compound | TGI (A498 renal) | TGI (A549 NSCLC) | TGI (ACHN renal) | TGI (DU-145 prostate) | TGI (HCT-15 colon) | TGI (HS 578T breast) | TGI (KM12 colon) | TGI (MDA-MB-231 breast) | TGI (NCI-H226 lung) | TGI (SF-539 CNS) | GI50 (A549 NSCLC) | GI50 (ACHN renal) | GI50 (DU-145 prostate) | GI50 (HCT-15 colon) | GI50 (HS 578T breast) | GI50 (KM12 colon) | GI50 (MDA-MB-231 breast) | GI50 (NCI-H226 lung) | GI50 (SF-539 CNS) | GI50 (A498 renal)
C=C1C(=O)O[C@@H]2C(=O)[C@@H](C)[C@@H]3C=CC(=O)[C@@]3(C)[C@@H](OC(=O)/C(C)=C\C)[C@H]12 | 3.44 µM | 32.6 µM | 0.609 µM | 3.5 µM | 2.27 µM | > 58.8 µM | 8 µM | 3.6 µM | 8.36 µM | 5.11 µM | – | – | – | – | – | – | – | – | – | –
Cc1n[nH]c(=S)n1/N=C/c1ccc(F)c(Oc2ccccc2)c1 | – | > 100 µM | > 100 µM | > 100 µM | > 100 µM | > 100 µM | > 100 µM | > 100 µM | > 100 µM | 65.1 µM | 42.2 µM | > 100 µM | 49.5 µM | 49.7 µM | 33.2 µM | 41.3 µM | 41.2 µM | > 100 µM | 27.7 µM | –
O=C1C(=O)N(C(=O)c2ccc(Cl)c(Cl)c2)c2ccc(Cl)cc21 | 63.8 µM | > 100 µM | > 100 µM | – | – | – | > 100 µM | – | > 100 µM | > 100 µM | – | – | – | – | – | – | – | – | – | –
CCN(CC)CCOc1ccc(/C(=C(\C)Cc2ccc(OC)cc2)c2ccc(OC(=O)NCc3ccccc3)cc2)cc1 | 17.7 µM | 4.7 µM | 3.58 µM | 5.56 µM | 3.23 µM | 6.16 µM | 3.89 µM | 3.47 µM | 18.7 µM | 3.19 µM | 2.15 µM | 1.85 µM | 2.24 µM | 1.53 µM | 2.36 µM | 1.87 µM | 1.86 µM | 4.71 µM | 1.75 µM | 4.3 µM
Cc1cc(O)c(C(c2cccnc2)c2c(O)cc(C)[nH]c2=O)c(=O)[nH]1 | – | > 100 µM | > 100 µM | > 100 µM | > 100 µM | > 100 µM | > 100 µM | > 100 µM | – | – | – | – | – | – | – | – | – | – | – | –
CCOC(=O)c1ccc(N(CCOS(C)(=O)=O)CCOS(C)(=O)=O)cc1C | 73.3 µM | > 100 µM | 42.7 µM | 38.9 µM | > 100 µM | > 100 µM | > 100 µM | > 100 µM | – | > 100 µM | 44.5 µM | 9.94 µM | 18.4 µM | 28.2 µM | 64.1 µM | 90.4 µM | 77.9 µM | – | 23.9 µM | 24.1 µM
N.N.N.N.N.N.[I-].[Os] | > 100 µM | > 100 µM | > 100 µM | – | > 100 µM | – | > 100 µM | – | > 100 µM | > 100 µM | > 100 µM | > 100 µM | – | > 100 µM | – | > 100 µM | – | > 100 µM | > 100 µM | > 100 µM
C#CCOCn1cnc2c(=S)nc[nH]c21 | > 100 µM | > 100 µM | > 100 µM | – | > 100 µM | – | > 100 µM | – | > 100 µM | – | – | – | – | – | – | – | – | – | – | –
CC1(C)OC(C(N)=O)=C(C(N)=O)O1 | > 100 µM | > 100 µM | > 100 µM | – | > 100 µM | – | > 100 µM | – | > 100 µM | > 100 µM | – | – | – | – | – | – | – | – | – | –
Cc1c(C(=O)CC(=O)C(=O)Nc2ccc(Cl)c(Cl)c2)[n+](=O)c2ccccc2n1[O-] | > 100 µM | 69.3 µM | > 100 µM | – | 48.2 µM | – | > 100 µM | – | > 100 µM | 57.5 µM | – | – | – | – | – | – | – | – | – | –
CCC(C)OC(=O)C1C2CCC(O2)C1C(=O)O (configuration not stated) | > 100 µM | > 100 µM | > 100 µM | – | > 56 µM | – | > 100 µM | – | > 100 µM | > 100 µM | – | – | – | – | – | – | – | – | – | –
N/C(=N\N=C\c1cccs1)NO | > 100 µM | > 100 µM | > 100 µM | – | > 100 µM | – | > 100 µM | – | > 100 µM | > 100 µM | – | – | – | – | – | – | – | – | – | –
COc1ccc(C(c2ccc(C(C)C)cc(=O)c2O)c2ccc3cccnc3c2O)cc1 (configuration not stated) | – | 12.3 µM | 7.53 µM | – | 14.5 µM | – | 18.7 µM | – | 4.38 µM | 2.29 µM | – | – | – | – | – | – | – | – | – | –
CCc1ccccc1NC(=O)CCc1n[nH]c(=S)o1 | > 100 µM | > 100 µM | > 100 µM | – | 36.8 µM | – | > 100 µM | – | > 100 µM | > 100 µM | – | – | – | – | – | – | – | – | – | –
CN=C1Nc2ccc(Cl)cc2C(c2ccccc2)=NN1C | > 100 µM | > 100 µM | > 100 µM | – | > 100 µM | – | > 100 µM | – | > 100 µM | > 100 µM | – | – | – | – | – | – | – | – | – | –
CC(=O)NC(CCCCNC(=O)N(CCCl)N=O)C(=O)NCc1ccccc1 (configuration not stated) | – | > 100 µM | > 100 µM | – | > 100 µM | – | > 100 µM | – | > 100 µM | > 100 µM | – | – | – | – | – | – | – | – | – | –
CC(=O)OCc1cc(OC(C)=O)cnc1COC(C)=O | > 100 µM | > 100 µM | > 100 µM | – | > 100 µM | – | > 100 µM | – | > 100 µM | > 100 µM | – | – | – | – | – | – | – | – | – | –
COc1cc(-c2cc(=O)c3ccccc3o2)ccc1N | > 100 µM | > 100 µM | > 100 µM | – | > 100 µM | – | > 100 µM | – | 96.6 µM | > 100 µM | – | – | – | – | – | – | – | – | – | –
ClC1CCC2OOC1O2 (configuration not stated) | > 100 µM | > 100 µM | > 100 µM | – | > 100 µM | – | > 100 µM | – | > 100 µM | > 100 µM | – | – | – | – | – | – | – | – | – | –
COc1cc2nc(Sc3c([N+](=O)[O-])ncn3C)[nH]c2cc1OC | > 100 µM | > 100 µM | > 100 µM | – | > 100 µM | – | > 100 µM | – | > 100 µM | 47.5 µM | – | – | – | – | – | – | – | – | – | –
Cc1ccc(S(=O)(=O)/N=c2\ssc(Nc3ccccc3)c2Cl)cc1 | – | > 50 µM | 22.5 µM | 27.6 µM | 34.4 µM | – | 20.4 µM | 26 µM | > 50 µM | – | 14.6 µM | 9.58 µM | 7.74 µM | 11.9 µM | – | 8.26 µM | 9.84 µM | 19.2 µM | – | –
O=C(O)c1ccc(O)c(N=Nc2cc(S(=O)(=O)O)c3ccccc3c2O)c1 | > 100 µM | > 100 µM | > 100 µM | – | > 10 µM | – | > 100 µM | – | > 100 µM | > 10 µM | – | – | – | – | – | – | – | – | – | –
